Laboratory results published in patent US20160060260A1, “BROMODOMAIN INHIBITORS FOR TREATING DISEASE” (Board of Regents, The University of Texas System, priority 2014, published 2016).

Biological target: T1, Recombinant human His-tagged Trim24-PHD-bromodomain (Homo sapiens, UniProt O15164)
T1 construct: Recombinant human His-tagged Trim24-PHD-bromodomain (produced in-house); made in house
T1 sequence (O15164 824-1006 limits assumed): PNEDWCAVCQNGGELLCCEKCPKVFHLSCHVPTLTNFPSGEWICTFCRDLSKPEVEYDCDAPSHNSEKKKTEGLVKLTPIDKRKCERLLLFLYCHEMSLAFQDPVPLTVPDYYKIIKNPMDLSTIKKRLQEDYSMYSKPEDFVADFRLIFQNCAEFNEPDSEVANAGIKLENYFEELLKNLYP
Experiment: Trim24 AlphaScreen Assay
Format: binding
Settings: 5 nM Trim24 protein, 15 nM biotinylated H3K23ac (1-33aa) peptide
Procedure: Recombinant human His-tagged Trim24-PHD-bromodomain (produced in-house), biotinylated H3K23ac (1-33aa) peptide (AnaSpec, Inc.), and test compound were added to a 384-well OptiPlate (Perkin Elmer) and incubated at room temperature for one hour. The assay buffer consisted of 50 mM Hepes, pH 7.5, 100 mM NaCl, and 0.12 mM Triton X-100.
Streptavidin donor beads and nickel chelate acceptor beads, both from a Perkin Elmer AlphaScreen Histidine Detection Kit, were then added to the Optiplate to a final concentration of 10 ug/mL each. Following a 2 hour incubation at room temperature, the microplate was read on an Envision Plate Reader (Perkin Elmer). Percent of control (POC) values were calculated from the following formula:
POC=[sample signal-average background signal]/[average maximum signal−average background signal]*100
The average maximum signal was obtained from wells containing all assay components except test compound. The average background signal pertained to wells with all assay components except Trim24 and test compound. IC50 values were calculated using a four-parameter logistic curve fit.

First: CCCOc1cccc(Oc2cc3c(cc2NS(=O)(=O)c2cn(C)c(C)n2)n(C)c(=O)n3C)c1 [Example 61, N-(1,3-dimethyl-2-oxo-6-(3-propoxyphenoxy)-2,3-dihydro-1H-benzo[d]imidazol-5-yl)-1,2-dimethyl-1H-imidazole-4-sulfonamide]
Second: CCCCOc1cccc(Oc2cc3c(cc2NS(=O)(=O)c2cn(C)c(C)n2)n(C)c(=O)n3C)c1 [Example 57, N-(6-(3-butoxyphenoxy)-1,3-dimethyl-2-oxo-2,3-dihydro-1H-benzo[d]imidazol-5-yl)-1,2-dimethyl-1H-imidazole-4-sulfonamide]
The IC50 of the first is lower: 10 to 100 nM for the first, 100 to 1000 nM for the second. The first is the more potent here.

First: CCCOc1cccc(Oc2cc3c(cc2NS(=O)(=O)c2cnn(C)c2)n(C)c(=O)n3C)c1 [Example 75, N-(1,3-dimethyl-2-oxo-6-(3-propoxyphenoxy)-2,3-dihydro-1H-benzo[d]imidazol-5-yl)-1-methyl-1H-pyrazole-4-sulfonamide]
Second: CCOc1cccc(Oc2cc3c(cc2NS(=O)(=O)c2cn(C)c(C)n2)n(C)c(=O)n3C)c1 [Example 6, N-(6-(3-ethoxyphenoxy)-1,3-dimethyl-2-oxo-2,3-dihydro-1H-benzo[d]imidazol-5-yl)-1,2-dimethyl-1H-imidazole-4-sulfonamide]
The IC50 of the first is lower: 10 to 100 nM for the first, 100 to 1000 nM for the second.

First: COc1ccc(S(=O)(=O)Nc2cc3c(cc2Oc2cccc(OCc4ccncc4)c2)n(C)c(=O)n3C)cc1OC [Example 31, N-(1,3-dimethyl-2-oxo-6-(3-(pyridin-4-ylmethoxy)phenoxy)-2,3-dihydro-1H-benzo[d]imidazol-5-yl)-3,4-dimethoxybenzenesulfonamide]
Second: COc1ccc(S(=O)(=O)Nc2cc3c(cc2Oc2cccc(OCC(F)(F)F)c2)n(C)c(=O)n3C)cc1OC [Example 184, N-(1,3-dimethyl-2-oxo-6-(3-(2,2,2-trifluoroethoxy)phenoxy)-2,3-dihydro-1H-benzo[d]imidazol-5-yl)-3,4-dimethoxybenzenesulfonamide]
The IC50 of the first is higher: 100 to 1000 nM for the first, 10 to 100 nM for the second.

First: CCCOc1cccc(Oc2cc3c(cc2NS(=O)(=O)c2ccc(OC)c(NC(C)=O)c2)n(C)c(=O)n3C)c1 [Example 174, N-(5-(N-(1,3-dimethyl-2-oxo-6-(3-propoxyphenoxy)-2,3-dihydro-1H-benzo[d]imidazol-5-yl)sulfamoyl)-methoxyphenyl)acetamide]
Second: CCCOc1cc(OCCCOC)cc(Oc2cc3c(cc2NS(=O)(=O)c2ccc(OC)cc2)n(C)c(=O)n3C)c1 [Example 157, 4-methoxy-N-(6-(3-(3-methoxypropoxy)-5-propoxyphenoxy)-1,3-dimethyl-2-oxo-2,3-dihydro-1H-benzo[d]imidazol-5-yl)benzenesulfonamide]
The IC50 of the first is lower: 10 to 100 nM for the first, 100 to 1000 nM for the second.

`CC(C)c1cccc(S(=O)(=O)Nc2cc3c(cc2Oc2cccc(OCc4ccccc4)c2)n(C)c(=O)n3C)c1` [Example 32, N-(6-(3-(benzyloxy)phenoxy)-1,3-dimethyl-2-oxo-2,3-dihydro-1H-benzo[d]imidazol-5-yl)-3-isopropylbenzenesulfonamide] and `Cn1c(=O)n(C)c2cc(Oc3cccc(OCc4ccccc4)c3)c(NS(=O)(=O)c3cccc(Br)c3)cc21` [Example 38, N-(6-(3-(benzyloxy)phenoxy)-1,3-dimethyl-2-oxo-2,3-dihydro-1H-benzo[d]imidazol-5-yl)-3-bromobenzenesulfonamide] cannot be ordered by IC50: greater than 1000 nM for the first, greater than 1000 nM for the second.

First: CCCOc1cc(Oc2cc3c(cc2NS(=O)(=O)c2cn(C)cn2)n(C)c(=O)n3C)ccc1OC [Example 114, N-(6-(4-methoxy-5-propoxyphenoxy)-1,3-dimethyl-2-oxo-2,3-dihydro-1H-benzo[d]imidazol-5-yl)-1-methyl-1H-imidazole-4-sulfonamide]
Second: COC(C)(CO)COc1cccc(Oc2cc3c(cc2NS(=O)(=O)c2cn(C)cn2)n(C)c(=O)n3C)c1 (stereo not drawn) [Example 232, N-{6-[3-(3-hydroxy-2-methoxy-2-methylpropoxy)phenoxy]-1,3-dimethyl-2-oxo-2,3-dihydro-1H-1,3-benzodiazol-5-yl}-1-methyl-1H-imidazole-4-sulfonamide]
The IC50 of the first is higher: greater than 1000 nM for the first, 100 to 1000 nM for the second.

First: CCCOc1cc(OCCCCCCN)cc(Oc2cc3c(cc2NS(=O)(=O)c2cnn(C)c2C)n(C)c(=O)n3C)c1 [Example 189, N-(6-(3-((6-aminohexyl)oxy)-5-propoxyphenoxy)-1,3-dimethyl-2-oxo-2,3-dihydro-1H-benzo[d]imidazol-5-yl)-1,5-dimethyl-1H-pyrazole-4-sulfonamide]
Second: CCCOc1cc(OCCCOC)cc(Oc2cc3c(cc2NS(=O)(=O)c2cn(C)c(C)n2)n(C)c(=O)n3C)c1 [Example 94, N-(6-(3-(3-methoxypropoxy)-5-propoxyphenoxy)-1,3-dimethyl-2-oxo-2,3-dihydro-1H-benzo[d]imidazol-5-yl)-1,2-dimethyl-1H-imidazole-4-sulfonamide]
The IC50 of the first is lower: 1 to 10 nM for the first, 10 to 100 nM for the second.

Compared with `Cn1c(=O)n(C)c2cc(Oc3cc(OCCCCCCN)cc(OCC(F)(F)F)c3)c(NS(=O)(=O)c3cccnc3)cc21` [Example 201, N-(6-(3-((6-aminohexyl)oxy)-5-(2,2,2-trifluoroethoxy)phenoxy)-1,3-dimethyl-2-oxo-2,3-dihydro-1H-benzo[d]imidazol-5-yl)pyridine-3-sulfonamide], `CCCOc1ccc(F)c(Oc2cc3c(cc2NS(=O)(=O)c2cccnc2)n(C)c(=O)n3C)c1` [Example 135, N-(6-(2-fluoro-5-propoxyphenoxy)-1,3-dimethyl-2-oxo-2,3-dihydro-1H-benzo[d]imidazol-5-yl)pyridine-3-sulfonamide] is higher in IC50: 1 to 10 nM for the first, 10 to 100 nM for the second. The first is the more potent here.

Compared with `CCCOc1cc(OCCCC[N+](C)(C)C)cc(Oc2cc3c(cc2NS(=O)(=O)c2ccc(OC)c(OC)c2)n(C)c(=O)n3C)c1` [Example 254, 4-(3-((6-(3,4-dimethoxyphenylsulfonamido)-1,3-dimethyl-2-oxo-2,3-dihydro-1H-benzo[d]imidazol-5-yl)oxy)-5-propoxyphenoxy)-N,N,N-trimethylbutan-1-aminium 2,2,2-trifluoroacetate], `COCCCOc1cc(OCCCOC)cc(Oc2cc3c(cc2NS(=O)(=O)c2ccc(OC)c(OC)c2)n(C)c(=O)n3C)c1` [Example 122, N-(6-(3,5-bis(3-methoxypropoxy)phenoxy)-1,3-dimethyl-2-oxo-2,3-dihydro-1H-benzo[d]imidazol-5-yl)-3,4-dimethoxybenzenesulfonamide] is higher in IC50: 1 to 10 nM for the first, 10 to 100 nM for the second.

Compared with `Cn1cnc(S(=O)(=O)Nc2cc3c(cc2Oc2cccc(OCc4ccccn4)c2)n(C)c(=O)n3C)c1` [Example 28, N-(1,3-dimethyl-2-oxo-6-(3-(pyridin-2-ylmethoxy)phenoxy)-2,3-dihydro-1H-benzo[d]imidazol-5-yl)-1-methyl-1H-imidazole-4-sulfonamide], `Cc1cc(S(=O)(=O)Nc2cc3c(cc2Oc2cccc(OCc4ccccc4)c2)n(C)c(=O)n3C)n(C)n1` [Example 79, N-(6-(3-(benzyloxy)phenoxy)-1,3-dimethyl-2-oxo-2,3-dihydro-1H-benzo[d]imidazol-5-yl)-1,3-dimethyl-1H-pyrazole-5-sulfonamide] is higher in IC50: 100 to 1000 nM for the first, greater than 1000 nM for the second.

First: Cc1nc(S(=O)(=O)Nc2cc3c(cc2Oc2cccc(OCC(F)(F)F)c2)n(C)c(=O)n3C)cn1C [Example 67, N-(1,3-dimethyl-2-oxo-6-(3-(2,2,2-trifluoroethoxy)phenoxy)-2,3-dihydro-1H-benzo[d]imidazol-5-yl)-1,2-dimethyl-1H-imidazole-4-sulfonamide]
Second: CCCOc1ccc(F)c(Oc2cc3c(cc2NS(=O)(=O)c2cn(C)c(C)n2)n(C)c(=O)n3C)c1 [Example 133, N-(6-(2-fluoro-5-propoxyphenoxy)-1,3-dimethyl-2-oxo-2,3-ddihydro-1H-benzo[d]imidazol-5-yl)-1,2-dimethyl-1H-imidazole-4-sulfonamide]
The IC50 of the first is lower: 10 to 100 nM for the first, 100 to 1000 nM for the second. The first is the more potent here.

First: Cc1c(S(=O)(=O)Nc2cc3c(cc2Oc2cccc(OCC4CC4)c2)n(C)c(=O)n3C)cnn1C [Example 102, N-(6-(3-(cyclopropylmethoxy)phenoxy)-1,3-dimethyl-2-oxo-2,3-dihydro-1H-benzo[d]imidazol-5-yl)-1,5-dimethyl-1H-pyrazole-4-sulfonamide]
Second: Cn1c(=O)n(C)c2cc(Oc3cccc(OCc4ccccc4)c3)c(NS(=O)(=O)c3cn[nH]c3)cc21 [Example 51, N-(6-(3-(benzyloxy)phenoxy)-1,3-dimethyl-2-oxo-2,3-dihydro-1H-benzo[d]imidazol-5-yl)-1H-pyrazole-4-sulfonamide]
The IC50 of the first is lower: 10 to 100 nM for the first, 100 to 1000 nM for the second. The first is the more potent here.

Compared with `CCCOc1cc(OCCCOC)cc(Oc2cc3c(cc2NS(=O)(=O)c2cccc4[nH]c(=O)c(=O)[nH]c24)n(C)c(=O)n3C)c1` [Example 176, N-(6-(3-(3-methoxypropoxy)-5-propoxyphenoxy)-1,3-dimethyl-2-oxo-2,3-dihydro-1H-benzo[d]imidazol-5-yl)-2,3-dioxo-1,2,3,4-tetrahydroquinoxaline-5-sulfonamide], `COCCS(=O)(=O)Nc1cc2c(cc1Oc1cccc(OCc3ccccc3)c1)n(C)c(=O)n2C` [Example 27, N-(6-(3-(benzyloxy)phenoxy)-1,3-dimethyl-2-oxo-2,3-dihydro-1H-benzo[d]imidazol-5-yl)-2-methoxyethane-1-sulfonamide] is higher in IC50: 10 to 100 nM for the first, greater than 1000 nM for the second.

Work on `Cc1ccccc1S(=O)(=O)Nc1cc2c(cc1Oc1cccc(OCc3ccccc3)c1)n(C)c(=O)n2C` [Example 35, N-(6-(3-(benzyloxy)phenoxy)-1,3-dimethyl-2-oxo-2,3-dihydro-1H-benzo[d]imidazol-5-yl)-2-methylbenzenesulfonamide] yielded an IC50 greater than 1000 nM.
